As a reminder, the IC50 is the midpoint of a concentration-inhibition curve. Read a high IC50 as weaker potency.

Active and inactive are the calls of the source. The rule behind the calls is not given here.

The values below come from ChEMBL document CHEMBL4382242, “Novel racemosin B derivatives as new therapeutic agents for aggressive breast cancer” (Bioorg Med Chem, 2018).

In one test the test system is MCF7. The test can be described thus: Growth inhibition of human MCF7 cells after 72 hrs by MTT assay. The format is functional, cell-based. The conditions noted are these: MCF7, 72 h. For orientation: Formazan colour is commonly taken as a measure of viable cells.
For test [1], the system named is MDA-MB-231. The test can be described thus: Growth inhibition of human MDA-MB-231 cells after 72 hrs by MTT assay. Particulars: MDA-MB-231, 72 h. The format is functional, cell-based.
Test [2] deals with MDA-MB-231. The test can be described thus: Growth inhibition of human MDA-MB-231 cells at 1 to 5 uM after 72 hrs by MTT assay. The format is functional, cell-based.
The test system of test [3] is MDA-MB-231. The test can be described thus: Induction of apoptosis in human MDA-MB-231 cells assessed as late apoptotic cells at 5 uM after 48 hrs by Annexin V-FITC/propidium iodide staining based flow cytometry (reference value: 6.5%). The format is functional. A general note: In flow cytometry, cells or beads pass a laser one at a time.
Test [4] has as its system MDA-MB-231. The test can be described thus: Induction of morphological changes in human MDA-MB-231 cells assessed as large vacuole formation at 5 uM after 24 hrs. The test is classed as functional, cell-based.
Test [5] is described as follows: Growth inhibition of human WM9 cells after 72 hrs by MTT assay. Particulars: WM9, 72 h. The format is functional.
The test system of test [6] is MDA-MB-231. The test can be described thus: Induction of apoptosis in human MDA-MB-231 cells assessed as late apoptotic cells at 5 uM after 24 hrs by Annexin V-FITC/propidium iodide staining based flow cytometry (reference value: 4.8%). The format is functional.
Test [7] deals with MDA-MB-231. The test can be described thus: Inhibition of autophagy in human MDA-MB-231 cells assessed as increase in p62 protein expression at 5 uM after 16 hrs by Western blot analysis. The test is classed as functional, cell-based. For orientation: In western blotting, separated proteins are transferred to a membrane and probed.
Test [8] has as its system MDA-MB-231. The test can be described thus: Cell cycle arrest in human MDA-MB-231 cells assessed as accumulation at G1 phase at 5 uM after 24 hrs by propidium iodide staining based flow cytometry (reference value: 47.9%). The format is functional.
For a further test, the system named is 4T1. The test can be described thus: Growth inhibition of mouse 4T1 cells after 72 hrs by MTT assay. The test is classed as functional, cell-based. The conditions noted are these: 4T1, 72 h.
Test [9] concerns MDA-MB-231. The test can be described thus: Cell cycle arrest in human MDA-MB-231 cells assessed as accumulation at G2/M phase at 5 uM after 24 hrs by propidium iodide staining based flow cytometry (reference value: 18.5%). The test is classed as functional.
Another test deals with HEL. The test can be described thus: Growth inhibition of HEL cells after 72 hrs by MTT assay. Particulars: Homo sapiens. The format is functional, cell-based.
Test [10] deals with MDA-MB-231. The test can be described thus: Cell cycle arrest in human MDA-MB-231 cells assessed as accumulation at G1 phase at 5 uM after 48 hrs by propidium iodide staining based flow cytometry (reference value: 3.19%). The test is classed as functional.
Test [11] concerns MDA-MB-231. The test can be described thus: Induction of apoptosis in human MDA-MB-231 cells assessed as necrotic cells at 5 uM after 48 hrs by Annexin V-FITC/propidium iodide staining based flow cytometry (reference value: 0.7%). The test is classed as functional.
Test [12] has as its system MDA-MB-231. The test can be described thus: Induction of apoptosis in human MDA-MB-231 cells assessed as necrotic cells at 5 uM after 24 hrs by Annexin V-FITC/propidium iodide staining based flow cytometry (reference value: 0.7%). The test is classed as functional.
Test [13] relates to MDA-MB-231. The test can be described thus: Induction of apoptosis in human MDA-MB-231 cells assessed as increase in Bax protein expression at 5 uM after 16 hrs by Western blot analysis. The test is classed as functional, cell-based.
In test [14] the test system is MDA-MB-231. The test can be described thus: Induction of apoptosis in human MDA-MB-231 cells assessed as live cells at 5 uM after 48 hrs by Annexin V-FITC/propidium iodide staining based flow cytometry (reference value: 87.6%). The format is functional.
Test [15] has as its system MDA-MB-231. The test can be described thus: Cell cycle arrest in human MDA-MB-231 cells assessed as accumulation at S phase at 5 uM after 48 hrs by propidium iodide staining based flow cytometry (reference value: 31.71%). The test is classed as functional.
In test [16] the test system is MDA-MB-231. The test can be described thus: Induction of apoptosis in human MDA-MB-231 cells assessed as decrease in Bcl2 protein expression at 5 uM after 16 hrs by Western blot analysis. The test is classed as functional, cell-based.
Test [17] deals with MDA-MB-231. The test can be described thus: Cell cycle arrest in human MDA-MB-231 cells assessed as accumulation at G2/M phase at 5 uM after 48 hrs by propidium iodide staining based flow cytometry (reference value: 17.79%). The test is classed as functional.
Test [18] has as its system MDA-MB-231. The test can be described thus: Induction of apoptosis in human MDA-MB-231 cells assessed as live cells at 5 uM after 24 hrs by Annexin V-FITC/propidium iodide staining based flow cytometry (reference value: 90.8%). The format is functional.
Test [19] relates to MDA-MB-231. The test can be described thus: Induction of apoptosis in human MDA-MB-231 cells assessed as early apoptotic cells at 5 uM after 48 hrs by Annexin V-FITC/propidium iodide staining based flow cytometry (reference value: 5.3%). The format is functional.
The subject of test [20] is MDA-MB-231. The test can be described thus: Induction of apoptosis in human MDA-MB-231 cells assessed as increase in Cyclin-B1 protein expression at 5 uM after 16 hrs by Western blot analysis. The test is classed as functional, cell-based.
The nature of test [21]: Growth inhibition of human WM35 cells after 72 hrs by MTT assay. The test is classed as functional. The conditions noted are these: WM35, 72 h.
Test [22] has as its system MDA-MB-231. The test can be described thus: Induction of apoptosis in human MDA-MB-231 cells assessed as early apoptotic cells at 5 uM after 24 hrs by Annexin V-FITC/propidium iodide staining based flow cytometry (reference value: 3.7%). The test is classed as functional.
A further test deals with K562. The test can be described thus: Growth inhibition of human K562 cells after 72 hrs by MTT assay. The test is classed as functional, cell-based. The conditions noted are these: K562, 72 h.
For test [23], the target named is Serine/threonine-protein kinase mTOR (Homo sapiens) (UniProt P42345). The test can be described thus: Inhibition of mTOR phosphorylation in human MDA-MB-231 cells at 5 uM after 16 hrs by Western blot analysis. The format is cell-based.
The test system of test [24] is MDA-MB-231. The test can be described thus: Cell cycle arrest in human MDA-MB-231 cells assessed as accumulation at S phase at 5 uM after 24 hrs by propidium iodide staining based flow cytometry (reference value: 29.76%). The format is functional.
For test [25], the system named is MDA-MB-231. The test can be described thus: Inhibition of autophagy in human MDA-MB-231 cells assessed as LC3-2 accumulation at 5 uM after 16 hrs by DAPI staining based immunofluorescence assay. The format is functional, cell-based.

`CN(C)CCNC(=O)c1cc2c3ccccc3[nH]c2c2c1[nH]c1cc(Cl)ccc12`: the half-inhibitory concentration (IC50) with MCF7 turned out to be 8.03 µM; in the test on MDA-MB-231 [1], 4.51 µM.
For `O=C(NCCN1CCCC1)c1cc2c3ccccc3[nH]c2c2c1[nH]c1ccc(Br)cc12`, the IC50 in the test with MCF7 stood at 1.3 µM; with MDA-MB-231 [1] it was 1.82 µM.
Turning to `COc1cccc2c1C(=O)c1c(O)c3c(c(O)c1C2=O)C[C@@](O)(C(=O)CO)C[C@@H]3O[C@H]1C[C@H](N)[C@H](O)[C@H](C)O1` [DOXORUBICIN], the IC50 in the test with MCF7 amounted to 0.42 µM; in the test on MDA-MB-231 [1], 0.25 µM.
The matching figures for `CC(C)N(CCNC(=O)c1cc2c3ccccc3[nH]c2c2c1[nH]c1ccccc12)C(C)C`: 3.12 µM and 1.72 µM.
Consider `O=C(NCCN1CCOCC1)c1cc2c3ccccc3[nH]c2c2c1[nH]c1ccccc12`, for which the IC50 in the test with MCF7 was 7.76 µM; in the test with MDA-MB-231 [1] it was 4.4 µM.
The matching figures for `CN1CCN(CCNC(=O)c2cc3c4ccccc4[nH]c3c3c2[nH]c2ccccc23)CC1`: 5.33 µM and 2.1 µM.
The matching figures for `CCN(CC)CCNC(=O)c1cc2c3ccccc3[nH]c2c2c1[nH]c1ccccc12`: 2.39 µM and 1.71 µM.
Take `O=C(NCCN1CCCC1)c1cc2c3ccccc3[nH]c2c2c1[nH]c1ccccc12`: the IC50 with MCF7 came out at 3.11 µM; in the test on MDA-MB-231 [1], 1.41 µM.
The matching figures for `COC(=O)c1cc2c3ccccc3[nH]c2c2c1[nH]c1ccc(Br)cc12`: greater than 40 µM and greater than 40 µM.
The matching figures for `CN(C)c1ccccc1NC(=O)c1cc2c3ccccc3[nH]c2c2c1[nH]c1ccccc12`: 10.8 µM and 7.81 µM.
The matching figures for `COC(=O)c1cc2c3ccccc3[nH]c2c2c1[nH]c1ccc(OC)cc12`: greater than 40 µM and greater than 40 µM.
Take `O=C(NCCNCCO)c1cc2c3ccccc3[nH]c2c2c1[nH]c1ccccc12`: the IC50 in the test on MCF7 amounted to 4.85 µM; with MDA-MB-231 [1], 2.05 µM.
The matching figures for `O=C(NCCN1CCCC1)c1cc2c3ccccc3[nH]c2c2c1[nH]c1cc(Cl)ccc12`: 8.4 µM and 5.7 µM.
On to `CN(C)CCNC(=O)c1cc2c3ccccc3[nH]c2c2c1[nH]c1ccc(Br)cc12`, for which the “growth inhibition (GI)” value in the test with MDA-MB-231 [2] is “Active”. Besides, the Activity in the test on MDA-MB-231 [3] is 5.5%; with MDA-MB-231 [6], 5%; in the test with MDA-MB-231 [8], 47.46%; with MDA-MB-231 [9] it was 22.91%; in the test with MDA-MB-231 [10] it was 48.65%; in the test on MDA-MB-231 [11], 9.6%. The Activity came to 2% in the test with MDA-MB-231 [12]; 70.8% in the test with MDA-MB-231 [14]; 21.38% with MDA-MB-231 [15]; 29.98% with MDA-MB-231 [17]; 82.2% in the test on MDA-MB-231 [18]; 14.2% in the test on MDA-MB-231 [19]. In addition, the Activity in the test with MDA-MB-231 [22] is 10.8%; in the test with MDA-MB-231 [24] it was 29.31%. For the same molecule, the outcome in the test on MDA-MB-231 [4] was Active. The IC50 is 2.43 µM in test [5]; 2.77 µM in the test with 4T1; 2 µM with MCF7; 3.63 µM in the test with HEL; 3.81 µM in [21]; 1.06 µM in the test on MDA-MB-231 [1]. Besides, the midpoint of inhibition in the test on K562, the IC50, lay at 1.56 µM. In addition, the inhibition entry (with MDA-MB-231 [7]; in test [23]; in the test with MDA-MB-231 [25]) was “Active” each time. Further, the result in the test on MDA-MB-231 [13], in the test with MDA-MB-231 [16] and in the test with MDA-MB-231 [20] was inactive.
Consider `CN(C)CCCNC(=O)c1cc2c3ccccc3[nH]c2c2c1[nH]c1ccccc12`, for which the IC50 in the test on MCF7 was determined as 3.7 µM; with MDA-MB-231 [1], 4.48 µM.
